We go through one compound from US20030211183A1, “Skin-improving agent” (Kyowa Hakko Kogyo Co., Ltd., priority 1999, published 2003).

The test system of this assay is Human neonate-derived fibroblasts. The assay can be described thus: Collagen synthesis-promoting activity on human fibroblasts (3H-glycine incorporation). Type of assay: cell-based. As to conditions: 300 μmol/l. The procedure: 201-271, Kodansha Scientific (1986).
Human neonate-derived fibroblasts (Sanko Junyaku Co., Ltd.) were suspended in DMEM containing 10% fetal bovine serum [Virology, 8, 396 (1959)] and cultured at 37° C. in 5% CO2 to the stationary phase. To the resulting culture were added ^3H-labeled glycine and a test substance, followed by further culturing for 72 hours. After 500 μmol/l phenylmethanesulfonyl fluoride (PMSF) was added to the obtained culture, the cells and the medium were collected, followed by disruption with a sonicator to extract proteins. To the extract were added 100 μmol/l bovine serum albumin (BSA) and 10% trichloroacetic acid (TCA), and the resulting mixture was centrifuged at 3000 rpm for 5 minutes to collect the precipitate. […]
After the reaction mixture was separated by ultrafiltration (molecular weight: 10,000), the radioactivity of the protein fraction in the filtrate (CDP) was measured as the amount of newly synthesized collagen. Then, the radioactivity of the protein fraction which was not filtered (NCDP) was measured, and the collagen synthesis ratio was calculated according to equation 2. The relative collagen synthesis-promoting activity (the change in collagen synthesis) was calculated according to equation 3 as the relative value of the collagen synthesis ratio in the presence of a test substance based on the control. […]

As to `Oc1cc(O)c2c(c1)O[C@H](c1ccc(O)c(O)c1)[C@H](O)[C@H]2c1c(O)cc(O)c2c1O[C@H](c1ccc(O)c(O)c1)[C@H](O)C2` [PB2, procyanidin B-2 [epicatechin-(4β→8)-epicatechin]], the “Amount of collagen synthesized compared with control (in words)” value is “increased”.
